Source: patent publication US20050075375A1 (priority 2003, published 2005)

Test system: monocistronic NK5.1 HCV replicon in Huh7 cells
Assay: HCV replicon assay, monocistronic replicon cell line
Format: cell-based, hepatitis C virus
Settings: Hepatitis C virus, Huh-7; monocistronic NK5.1 HCV replicon in Huh7 cells; median value; read-out: Mono EC50 Median
In short: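 EC50 derives from the HCV RNA/GAPDH RNA ratio by one-step TaqMan RT-PCR, relative to DMSO-only wells. Compounds (six half-log concentrations, 0.6% DMSO) were incubated 3 days at 37 °C with NK5.1 monocistronic replicon Huh7 cells plated a day earlier.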

| SMILES | EC50 |
| --- | --- |
| Oc1ccccc1-c1nc(-c2nccc3ccccc23)n[nH]1 [Compound 377, 2-(5-isoquinolin-1-yl-2H-[1,2,4]triazol-3-yl)-phenol] | > 19 µM |
| COc1cccc(-c2nc(-c3nccc4ccccc34)n[nH]2)c1O [Compound 378, 6-Methoxy-2-(5-isoquinolin-1-yl-2H-[1,2,4]triazol-3-yl)-phenol] | 16 µM |
| O=[N+]([O-])c1cccc(-c2nc(-c3nccc4ccccc34)n[nH]2)c1 [Compound 379] | > 19 µM |
| COc1ccc(OC)c(-c2nc(-c3nccc4ccccc34)n[nH]2)c1 [Compound 380] | > 19 µM |
| Oc1ccc(O)c(-c2nc(-c3nccc4ccccc34)n[nH]2)c1 [Compound 381, 4-Hydroxy-2-(5-isoquinolin-1-yl-2H-[1,2,4]triazol-3-yl)-phenol] | 8.5 µM |
| COc1cccc(-c2nc(-c3nccc4ccccc34)n[nH]2)c1 [Compound 382] | > 19 µM |
| COc1ccc(F)c(-c2nc(-c3nccc4ccccc34)n[nH]2)c1 [Compound 383] | > 19 µM |
| Oc1ccc2ccccc2c1-c1nc(-c2nccc3ccccc23)n[nH]1 [Compound 385, 1-(5-isoquinolin-1-yl-2H-[1,2,4]triazol-3-yl)-naphthalen-2-ol] | > 19 µM |
| Oc1ccc(O)c(-c2nc(-c3ccccn3)n[nH]2)c1 [Compound 386, 4-Hydroxy-2-(5-pyridin-2-yl-2H-[1,2,4]triazol-3-yl)-phenol] | > 19 µM |
| COc1cccc(-c2nc(-c3ccccn3)n[nH]2)c1 [Compound 387, 2-[5-(3-Methoxy-phenyl)-1H-[1,2,4]triazol-3-yl]-pyridine] | > 19 µM |
| COc1ccc(F)c(-c2nc(-c3ccccn3)n[nH]2)c1 [Compound 388, 2-[5-(2-Fluoro-5-methoxy-phenyl)-1H-[1,2,4]triazol-3-yl]-pyridine] | > 19 µM |
| CC(C)c1ccc(-c2nc(-c3ccccn3)n[nH]2)cc1 [Compound 389, 2-[5-(4-Isopropyl-phenyl)-1H-[1,2,4]triazol-3-yl]-pyridine] | > 19 µM |
| Cc1cccc(-c2n[nH]c(-c3cccc4ccccc34)n2)n1 [Compound 390, 2-Methyl-6-(5-naphthalen-1-yl-1H-[1,2,4]triazol-3-yl)-pyridine] | > 19 µM |
| Cc1cccc(-c2n[nH]c(-c3cc(C(C)(C)C)ccc3O)n2)n1 [Compound 391, 4-tert-Butyl-2-[5-(6-methyl-pyridin-2-yl)-2H-[1,2,4]triazol-3-yl]-phenol] | > 19 µM |
| Cc1cccc(-c2n[nH]c(-c3cc([N+](=O)[O-])ccc3O)n2)n1 [Compound 392, 4-Nitro-2-(5-(6-methyl-pyridin-2-yl)-2H-[1,2,4]triazol-3-yl)-phenol] | > 19 µM |
| Cc1cccc(-c2n[nH]c(-c3cc(F)ccc3O)n2)n1 [Compound 393, 4-Fluoro-2-(5-(6-methyl-pyridin-2-yl)-2H-[1,2,4]triazol-3-yl)-phenol] | > 19 µM |
| COc1ccc(O)c(-c2nc(-c3cccc(C)n3)n[nH]2)c1 [Compound 394, 4-Methoxy-2-(5-(6-methyl-pyridin-2-yl)-2H-[1,2,4]triazol-3-yl)-phenol] | > 19 µM |
| Cc1cccc(-c2n[nH]c(-c3cc(Cl)ccc3O)n2)n1 [Compound 395, 4-Chloro-2-(5-(6-methyl-pyridin-2-yl)-2H-[1,2,4]triazol-3-yl)-phenol] | > 19 µM |
| CCOc1cccc(-c2nc(-c3cccc(C)n3)n[nH]2)c1O [Compound 396, 6-Ethoxy-2-(5-(6-methyl-pyridin-2-yl)-2H-[1,2,4]triazol-3-yl)-phenol] | > 19 µM |
| Cc1cccc(-c2n[nH]c(-c3ccc(OCc4ccccc4)cc3O)n2)n1 [Compound 397, 5-Benzyloxy-2-(5-(6-methyl-pyridin-2-yl)-2H-[1,2,4]triazol-3-yl)-phenol] | > 19 µM |
| Cc1cccc(-c2n[nH]c(-c3ccc(-c4ccccc4)c(F)c3)n2)n1 [Compound 398, 2-[5-(2-Fluoro-biphenyl-4-yl)-1H-[1,2,4]triazol-3-yl]-6-methyl-pyridine] | > 19 µM |
| Cc1cccc(-c2n[nH]c(-c3cc(Br)ccc3O)n2)n1 [Compound 399, 4-Bromo-2-(5-(6-methyl-pyridin-2-yl)-2H-[1,2,4]triazol-3-yl)-phenol] | > 19 µM |
| Cc1ccc(O)c(-c2nc(-c3cccc(C)n3)n[nH]2)c1 [Compound 400, 4-Methyl-2-(5-(6-methyl-pyridin-2-yl)-2H-[1,2,4]triazol-3-yl)-phenol] | > 19 µM |
| COc1ccc(-c2nc(-c3cccc(C)n3)n[nH]2)c(O)c1 [Compound 401, 5-Methoxy-2-(5-(6-methyl-pyridin-2-yl)-2H-[1,2,4]triazol-3-yl)-phenol] | > 19 µM |

| SMILES | EC50 |
| --- | --- |
| Cc1cccc(-c2n[nH]c(-c3ccccc3O)n2)n1 [Compound 402, 2-(5-(6-methyl-pyridin-2-yl)-2H-[1,2,4]triazol-3-yl)-phenol] | > 19 µM |
| COc1cccc(-c2nc(-c3cccc(C)n3)n[nH]2)c1O [Compound 403, 6-Methoxy-2-(5-(6-methyl-pyridin-2-yl)-2H-[1,2,4]triazol-3-yl)-phenol] | > 19 µM |
| Cc1cccc(-c2n[nH]c(-c3cccc([N+](=O)[O-])c3)n2)n1 [Compound 404, 6-Methyl-2-[5-(3-nitro-phenyl)-1H-[1,2,4]triazol-3-yl]-pyridine] | > 19 µM |
| COc1cccc(-c2nc(-c3cccc(C)n3)n[nH]2)c1 [Compound 405, 2-[5-(3-Methoxy-phenyl)-1H-[1,2,4]triazol-3-yl]-6-methyl-pyridine] | > 19 µM |
| COc1ccc(F)c(-c2nc(-c3cccc(C)n3)n[nH]2)c1 [Compound 406, 2-[5-(2-Fluoro-5-methoxy-phenyl)-1H-[1,2,4]triazol-3-yl]-6-methyl-pyridine] | > 19 µM |
| COc1ccc([N+](=O)[O-])cc1-c1nc(-c2cccc(C)n2)n[nH]1 [Compound 407, 2-[5-(2-Methoxy-5-nitro-phenyl)-1H-[1,2,4]triazol-3-yl]-6-methyl-pyridine] | > 19 µM |
| Cc1cccc(-c2n[nH]c(-c3ccc(C(C)C)cc3)n2)n1 [Compound 408, 2-[5-(4-Isopropyl-phenyl)-1H-[1,2,4]triazol-3-yl]-6-methyl-pyridine] | > 19 µM |
| Cc1cccc(-c2n[nH]c(-c3c(O)ccc4ccccc34)n2)n1 [Compound 409, 1-(5-(6-methyl-pyridin-2-yl)-2H-[1,2,4]triazol-3-yl)-naphthalen-2-ol] | > 19 µM |
| FC(F)(F)c1ccncc1-c1n[nH]c(-c2cccc3ccccc23)n1 [Compound 410, 3-(5-Naphthalen-1-yl-1H-[1,2,4]triazol-3-yl)-4-trifluoromethyl-pyridine] | 2.9 µM |
| CC(C)(C)c1ccc(O)c(-c2nc(-c3cnccc3C(F)(F)F)n[nH]2)c1 [Compound 411, 4-tert-Butyl-2-[5-(4-trifluoromethyl-pyridin-3-yl)-2H-[1,2,4]triazol-3-yl]-phenol] | 10 µM |
| O=[N+]([O-])c1ccc(O)c(-c2nc(-c3cnccc3C(F)(F)F)n[nH]2)c1 [Compound 412, 4-Nitro-2-[5-(4-trifluoromethyl-pyridin-3-yl)-2H-[1,2,4]triazol-3-yl]-phenol] | > 19 µM |
| Oc1ccc(F)cc1-c1nc(-c2cnccc2C(F)(F)F)n[nH]1 [Compound 413, 4-Fluoro-2-[5-(4-trifluoromethyl-pyridin-3-yl)-2H-[1,2,4]triazol-3-yl]-phenol] | > 19 µM |
| COc1ccc(O)c(-c2nc(-c3cnccc3C(F)(F)F)n[nH]2)c1 [Compound 414, 4-Methoxy-2-[5-(4-trifluoromethyl-pyridin-3-yl)-2H-[1,2,4]triazol-3-yl]-phenol] | > 19 µM |
| Oc1ccc(Cl)cc1-c1nc(-c2cnccc2C(F)(F)F)n[nH]1 [Compound 415, 4-Chloro-2-[5-(4-trifluoromethyl-pyridin-3-yl)-2H-[1,2,4]triazol-3-yl]-phenol] | 14 µM |
| CCOc1cccc(-c2nc(-c3cnccc3C(F)(F)F)n[nH]2)c1O [Compound 416, 6-Ethoxy-2-[5-(4-trifluoromethyl-pyridin-3-yl)-2H-[1,2,4]triazol-3-yl]-phenol] | > 19 µM |
| Oc1cc(OCc2ccccc2)ccc1-c1nc(-c2cnccc2C(F)(F)F)n[nH]1 [Compound 417, 5-Benzyloxy-2-[5-(4-trifluoromethyl-pyridin-3-yl)-2H-[1,2,4]triazol-3-yl]-phenol] | > 19 µM |
| Fc1cc(-c2nc(-c3cnccc3C(F)(F)F)n[nH]2)ccc1-c1ccccc1 [Compound 418, 3-[5-(2-Fluoro-biphenyl-4-yl)-1H-[1,2,4]triazol-3-yl]-4-trifluoromethyl-pyridine] | 17 µM |
| Oc1ccc(Br)cc1-c1nc(-c2cnccc2C(F)(F)F)n[nH]1 [Compound 419, 4-Bromo-2-[5-(4-trifluoromethyl-pyridin-3-yl)-2H-[1,2,4]triazol-3-yl]-phenol] | 12 µM |
| Cc1ccc(O)c(-c2nc(-c3cnccc3C(F)(F)F)n[nH]2)c1 [Compound 420, 4-Methyl-2-[5-(4-trifluoromethyl-pyridin-3-yl)-2H-[1,2,4]triazol-3-yl]-phenol] | 9.7 µM |
| COc1ccc(-c2nc(-c3cnccc3C(F)(F)F)n[nH]2)c(O)c1 [Compound 421, 5-Methoxy-2-[5-(4-trifluoromethyl-pyridin-3-yl)-2H-[1,2,4]triazol-3-yl]-phenol] | > 19 µM |
| Oc1ccccc1-c1nc(-c2cnccc2C(F)(F)F)n[nH]1 [Compound 422, 2-[5-(4-trifluoromethyl-pyridin-3-yl)-2H-[1,2,4]triazol-3-yl]-phenol] | > 19 µM |
| COc1cccc(-c2nc(-c3cnccc3C(F)(F)F)n[nH]2)c1O [Compound 423, 6-Methoxy-2-[5-(4-trifluoromethyl-pyridin-3-yl)-2H-[1,2,4]triazol-3-yl]-phenol] | > 19 µM |
| CCN(CC)c1ccc(-c2nc(-c3cnccc3C(F)(F)F)n[nH]2)c(O)c1 [Compound 424, 5-Diethylamino-2-[5-(4-trifluoromethyl-pyridin-3-yl)-2H-[1,2,4]triazol-3-yl]-phenol] | > 3.2 µM |
